{
  "source": "paper PMC11418212",
  "about": "“Characterization of four structurally diverse inhibitors of SUR2-containing KATP channels” (Channels, 2024)",
  "assay_type_in_all_cases": "cell-based",
  "key": {"Kir2.1": {"target": "T1, Kir2.1 (Homo sapiens, UniProt P63252)", "T1 construct": "expressed in transfected cells", "T1 sequence (P63252 1-427)": "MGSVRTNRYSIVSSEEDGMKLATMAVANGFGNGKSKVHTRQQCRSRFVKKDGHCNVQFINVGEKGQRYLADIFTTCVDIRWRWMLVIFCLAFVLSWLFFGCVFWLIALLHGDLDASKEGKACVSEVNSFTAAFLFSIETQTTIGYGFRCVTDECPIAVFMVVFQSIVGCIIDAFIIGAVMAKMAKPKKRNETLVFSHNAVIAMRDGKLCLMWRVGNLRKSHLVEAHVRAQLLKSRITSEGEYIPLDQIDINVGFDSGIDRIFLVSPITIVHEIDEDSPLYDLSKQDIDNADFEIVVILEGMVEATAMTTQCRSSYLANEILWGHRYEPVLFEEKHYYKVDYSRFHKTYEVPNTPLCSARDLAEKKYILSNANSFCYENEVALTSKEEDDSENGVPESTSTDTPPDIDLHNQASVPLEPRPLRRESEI", "assay": "Kir family selectivity thallium flux assay", "method": "(§1) Thallium flux assays were conducted using the established methods. Stably transfected T-REx-HEK-293 cells expressing Kir6.2/SUR1 or Kir6.1/SUR2B were cultured overnight in polyamine-coated plates (black-walled, clear-bottomed; BD, Bedford, MA) at a density of 20,000 cells in 20 µl per well of cell culture media. The expression of Kir6.2/SUR1 or Kir6.1/SUR2B channels was induced by treating cells with 1 µg/ml tetracycline overnight. The following day, cells were rinsed with an assay buffer (Hanks’ Balanced Salt Solution supplied with 20 mM HEPES), loaded with the thallium-sensor dye Brilliant Thallos-AM AM (Ion Bioscience, San Marcos, TX) for 1 h, and then washed again with assay buffer to remove unincorporated dye. The cell plate was subsequently placed in a Panoptic Kinetic Imaging Plate Reader (Wavefront Bioscience, Franklin, TN) and imaged at a frequency of 1 Hz using 482/35 nm (excitation) and 536/40 nm (emission) filter sets. Kir6.1/SUR2B channels were activated with 10 µM pinacidil, whereas Kir6.1/SUR1 was activated with 30 µM VU0071063 [34]. To activate KATP channels independent of activators with ATP-depletion method, cells were treated with a cocktail of metabolic inhibitors (2.5 mM sodium cyanide and 20 mM 2-deoxy glucose) for 25 min before imagine. Control and test compounds diluted freshly from DMSO stocks into assay buffer were added to wells for four minutes before adding 0.5 mM chloride-free thallium stimulus buffer (Ion Bioscience) to initiate thallium flux through the expressed KATP channels. Thallium flux was recorded from all 384-wells for 2 min before terminating the experiment. […] Selectivity assays against other Kir channels were performed as described previously.\n(§2) To begin elucidating the binding site location of VU0212387, VU0543336, VU0605768, and VU0544086, we evaluated the activity of the inhibitors against KATP channels composed of different Kir and SUR subunit combinations expressed in HEK293 cells. Specifically, the compounds were tested against Kir6.1/SUR1, Kir6.2/SUR1, Kir6.1/SUR2A, Kir6.2/SUR2A, Kir6.1/SUR2B, and Kir6.2/SUR2B at a dose of 3 µM. […] We expanded the selectivity analysis to include 10 other members of the Kir channel family."}, "Kir2.3": {"target": "T2, Kir2.3 (Homo sapiens, UniProt P48050)", "T2 construct": "expressed in transfected cells", "T2 sequence (P48050 1-445)": "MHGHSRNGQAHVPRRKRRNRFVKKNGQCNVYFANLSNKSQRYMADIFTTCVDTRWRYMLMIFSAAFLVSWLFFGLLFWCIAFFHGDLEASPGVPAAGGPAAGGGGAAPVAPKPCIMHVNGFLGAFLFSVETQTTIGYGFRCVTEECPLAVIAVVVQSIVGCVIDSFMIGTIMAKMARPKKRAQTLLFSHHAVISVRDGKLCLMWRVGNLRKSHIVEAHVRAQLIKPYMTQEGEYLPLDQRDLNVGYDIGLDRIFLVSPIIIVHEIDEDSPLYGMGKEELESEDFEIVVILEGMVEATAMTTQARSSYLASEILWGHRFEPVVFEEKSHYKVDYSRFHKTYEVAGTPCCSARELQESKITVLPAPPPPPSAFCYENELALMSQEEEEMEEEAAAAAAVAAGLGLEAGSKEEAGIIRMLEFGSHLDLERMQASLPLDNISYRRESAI", "assay": "Kir family selectivity thallium flux assay", "method": "as §1, §2"}, "Kir2.2": {"target": "T3, Kir2.2 (Homo sapiens, UniProt Q14500)", "T3 construct": "expressed in transfected cells", "T3 sequence (Q14500 1-433)": "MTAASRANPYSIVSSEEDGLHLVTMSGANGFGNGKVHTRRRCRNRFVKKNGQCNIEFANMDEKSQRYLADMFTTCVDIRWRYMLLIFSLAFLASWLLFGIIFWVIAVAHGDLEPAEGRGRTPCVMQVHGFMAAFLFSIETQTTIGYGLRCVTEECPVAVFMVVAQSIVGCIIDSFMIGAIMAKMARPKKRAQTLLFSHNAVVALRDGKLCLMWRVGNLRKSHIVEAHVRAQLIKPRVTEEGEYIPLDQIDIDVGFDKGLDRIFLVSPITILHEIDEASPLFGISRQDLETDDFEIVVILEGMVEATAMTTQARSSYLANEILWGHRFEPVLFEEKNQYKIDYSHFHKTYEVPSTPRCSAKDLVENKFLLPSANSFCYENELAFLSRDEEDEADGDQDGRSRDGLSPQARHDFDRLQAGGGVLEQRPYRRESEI", "assay": "Kir family selectivity thallium flux assay", "method": "as §1, §2"}, "Kir6.1/SUR2B": {"target": "T4, Kir6.1/SUR2B (Homo sapiens, UniProt O60706)", "T4 construct": "expressed in transfected cells; Kir6.1 tetracycline-inducible, SUR2B constitutive", "T4 sequence (O60706 1-1549 isoform O60706-2, species assumed)": "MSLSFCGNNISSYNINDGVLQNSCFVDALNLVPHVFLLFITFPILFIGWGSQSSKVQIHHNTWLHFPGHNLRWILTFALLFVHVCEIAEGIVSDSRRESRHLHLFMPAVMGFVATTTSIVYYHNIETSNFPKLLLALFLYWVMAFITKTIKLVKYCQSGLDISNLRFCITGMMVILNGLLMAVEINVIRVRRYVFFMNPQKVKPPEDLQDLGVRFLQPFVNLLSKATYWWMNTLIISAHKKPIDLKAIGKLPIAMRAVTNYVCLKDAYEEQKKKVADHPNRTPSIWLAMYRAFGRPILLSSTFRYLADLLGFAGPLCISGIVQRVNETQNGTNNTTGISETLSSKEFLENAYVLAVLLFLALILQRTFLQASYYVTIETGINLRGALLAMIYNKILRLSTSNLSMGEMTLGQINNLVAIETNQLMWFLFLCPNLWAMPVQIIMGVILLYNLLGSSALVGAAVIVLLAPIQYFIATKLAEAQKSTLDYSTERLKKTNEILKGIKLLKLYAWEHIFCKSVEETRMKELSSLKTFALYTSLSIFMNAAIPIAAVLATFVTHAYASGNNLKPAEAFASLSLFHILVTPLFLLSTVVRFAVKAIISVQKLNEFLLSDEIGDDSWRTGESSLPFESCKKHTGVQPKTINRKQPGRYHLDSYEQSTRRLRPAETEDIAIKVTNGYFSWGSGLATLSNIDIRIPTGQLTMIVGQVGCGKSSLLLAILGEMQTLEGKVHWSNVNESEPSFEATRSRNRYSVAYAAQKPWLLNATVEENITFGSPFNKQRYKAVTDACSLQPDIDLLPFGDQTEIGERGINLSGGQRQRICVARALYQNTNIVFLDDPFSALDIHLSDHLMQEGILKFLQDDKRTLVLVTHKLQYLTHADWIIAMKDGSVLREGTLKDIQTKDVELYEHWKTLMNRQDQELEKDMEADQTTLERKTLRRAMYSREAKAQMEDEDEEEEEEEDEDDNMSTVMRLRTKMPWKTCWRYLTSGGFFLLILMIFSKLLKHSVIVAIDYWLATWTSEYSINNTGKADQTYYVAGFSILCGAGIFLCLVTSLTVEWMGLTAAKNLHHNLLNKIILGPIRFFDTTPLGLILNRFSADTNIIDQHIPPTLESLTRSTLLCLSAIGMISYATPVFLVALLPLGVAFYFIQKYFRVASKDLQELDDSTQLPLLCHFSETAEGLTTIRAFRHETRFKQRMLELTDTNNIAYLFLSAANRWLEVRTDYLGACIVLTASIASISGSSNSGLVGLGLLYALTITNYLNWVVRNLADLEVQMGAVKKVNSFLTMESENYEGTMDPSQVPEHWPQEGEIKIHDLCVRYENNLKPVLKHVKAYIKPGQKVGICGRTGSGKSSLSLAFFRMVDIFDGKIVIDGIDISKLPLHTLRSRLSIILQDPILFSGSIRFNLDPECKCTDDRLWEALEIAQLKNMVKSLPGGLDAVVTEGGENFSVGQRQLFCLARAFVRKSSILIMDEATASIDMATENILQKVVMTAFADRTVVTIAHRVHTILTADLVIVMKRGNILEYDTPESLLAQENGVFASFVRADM", "T4 sequence (Q15842 whole entry partner, species assumed)": "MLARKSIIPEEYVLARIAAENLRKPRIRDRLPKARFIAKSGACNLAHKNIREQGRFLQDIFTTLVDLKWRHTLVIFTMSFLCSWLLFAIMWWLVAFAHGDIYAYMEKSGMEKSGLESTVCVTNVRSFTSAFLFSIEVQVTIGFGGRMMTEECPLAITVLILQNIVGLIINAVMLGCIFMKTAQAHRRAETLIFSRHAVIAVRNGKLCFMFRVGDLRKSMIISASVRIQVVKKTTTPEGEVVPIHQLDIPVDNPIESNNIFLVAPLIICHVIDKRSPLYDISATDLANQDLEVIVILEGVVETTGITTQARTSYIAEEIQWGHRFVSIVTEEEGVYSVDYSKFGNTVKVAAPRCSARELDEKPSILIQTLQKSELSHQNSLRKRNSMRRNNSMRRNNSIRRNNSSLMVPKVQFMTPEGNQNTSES", "assay": "Thallium flux activation dose-response without channel pre-activation", "settings": "no channel pre-activation; doses up to 30 µM", "method": "as §1\n(§3) We therefore systematically explored this possibility in dose–response experiments against Kir6.2/SUR1 in the absence of channel pre-activation. Kir6.1/SUR2B was also evaluated for comparison.\n(§4) Figure 6. Paradoxical activation of Kir6.2/SUR1. […] Fluorescence intensity at each dose was normalized to that in the absence of drug. […] (b) Activities of indicated compounds at 30 μM toward Kir6.1/SUR2B normalized to that of 30 μM pinacidil. […] (d) Activities of indicated compounds at 30 μM toward Kir6.2/SUR1 normalized to that of 30 μM VU0071063."}, "Kir6.2/SUR1": {"target": "Kir6.2/SUR1 (Homo sapiens, UniProt Q09428)", "sequence (Q09428 whole entry, species assumed)": "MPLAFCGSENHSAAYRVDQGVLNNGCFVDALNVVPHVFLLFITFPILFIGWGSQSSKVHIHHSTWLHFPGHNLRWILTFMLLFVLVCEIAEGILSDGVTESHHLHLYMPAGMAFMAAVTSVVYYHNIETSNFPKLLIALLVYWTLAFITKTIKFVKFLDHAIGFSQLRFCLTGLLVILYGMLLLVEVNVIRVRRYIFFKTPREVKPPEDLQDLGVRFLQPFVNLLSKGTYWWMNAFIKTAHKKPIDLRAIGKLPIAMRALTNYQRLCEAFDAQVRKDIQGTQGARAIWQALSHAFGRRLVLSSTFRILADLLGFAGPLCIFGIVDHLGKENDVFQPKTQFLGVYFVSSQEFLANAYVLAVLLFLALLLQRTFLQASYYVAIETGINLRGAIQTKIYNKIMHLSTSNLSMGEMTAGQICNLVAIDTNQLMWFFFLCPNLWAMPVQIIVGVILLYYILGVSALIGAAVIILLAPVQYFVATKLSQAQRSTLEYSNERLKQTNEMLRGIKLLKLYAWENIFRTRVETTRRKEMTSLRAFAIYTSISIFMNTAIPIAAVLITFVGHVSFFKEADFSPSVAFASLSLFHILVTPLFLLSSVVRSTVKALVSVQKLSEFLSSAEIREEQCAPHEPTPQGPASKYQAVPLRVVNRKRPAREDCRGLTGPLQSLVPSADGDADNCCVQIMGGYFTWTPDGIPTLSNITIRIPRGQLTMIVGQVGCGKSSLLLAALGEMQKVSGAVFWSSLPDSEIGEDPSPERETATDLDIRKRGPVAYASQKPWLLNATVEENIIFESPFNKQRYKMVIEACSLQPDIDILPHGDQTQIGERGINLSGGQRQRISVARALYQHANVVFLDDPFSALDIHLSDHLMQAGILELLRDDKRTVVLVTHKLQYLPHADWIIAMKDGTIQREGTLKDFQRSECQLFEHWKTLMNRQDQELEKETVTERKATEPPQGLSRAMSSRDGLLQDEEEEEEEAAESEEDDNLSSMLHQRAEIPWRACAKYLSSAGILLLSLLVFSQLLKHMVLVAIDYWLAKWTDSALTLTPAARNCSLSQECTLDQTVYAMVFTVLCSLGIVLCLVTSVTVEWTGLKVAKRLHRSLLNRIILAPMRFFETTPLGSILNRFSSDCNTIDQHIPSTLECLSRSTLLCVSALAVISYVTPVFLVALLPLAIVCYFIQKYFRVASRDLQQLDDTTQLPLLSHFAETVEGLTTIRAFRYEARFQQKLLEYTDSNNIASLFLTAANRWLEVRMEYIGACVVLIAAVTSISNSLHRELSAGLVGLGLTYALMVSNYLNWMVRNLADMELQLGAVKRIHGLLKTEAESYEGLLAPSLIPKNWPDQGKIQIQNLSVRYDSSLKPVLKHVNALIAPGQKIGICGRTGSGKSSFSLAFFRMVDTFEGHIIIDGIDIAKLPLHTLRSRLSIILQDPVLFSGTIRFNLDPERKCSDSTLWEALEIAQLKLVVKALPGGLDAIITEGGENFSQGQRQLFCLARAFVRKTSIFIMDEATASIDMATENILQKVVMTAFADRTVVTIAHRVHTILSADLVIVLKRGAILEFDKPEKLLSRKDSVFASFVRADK", "sequence (Q14654 whole entry partner, species assumed)": "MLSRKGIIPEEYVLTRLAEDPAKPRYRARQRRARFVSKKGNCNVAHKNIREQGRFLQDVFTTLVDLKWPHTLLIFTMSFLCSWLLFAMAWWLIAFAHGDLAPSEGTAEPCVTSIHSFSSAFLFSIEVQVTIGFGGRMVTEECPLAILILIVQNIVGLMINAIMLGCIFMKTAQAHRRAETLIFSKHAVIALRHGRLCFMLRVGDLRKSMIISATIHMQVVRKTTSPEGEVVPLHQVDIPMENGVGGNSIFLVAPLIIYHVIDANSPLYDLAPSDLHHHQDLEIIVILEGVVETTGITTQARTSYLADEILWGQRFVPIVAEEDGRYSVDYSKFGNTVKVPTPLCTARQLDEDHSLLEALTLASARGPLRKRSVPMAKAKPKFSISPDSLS", "assay": "Thallium flux activation dose-response without channel pre-activation", "settings": "no channel pre-activation; doses up to 30 µM", "method": "as §1, §3, §4"}},
  "note": "Entries after “also recorded” stand apart in the source; their conditions may differ.",
  "data": [
    {"molecule": "O=C(NCC(O)(c1ccccc1)C(F)(F)F)c1ccc(OC(F)(F)F)cc1", "note": "(centres unmarked) [VU0543336, N-(3,3,3-trifluoro-2-hydroxy-2-phenylpropyl)-4-(trifluoromethoxy)benzamide]", "values": [
      {"measurement": "IC50", "setting": "Kir2.1", "result": "> 30", "unit": "µM"},
      {"measurement": "IC50", "setting": "Kir2.3", "result": "> 30", "unit": "µM"},
      {"measurement": "IC50", "setting": "Kir2.2", "result": "> 30", "unit": "µM"},
      {"measurement": "Activation of Kir6.1/SUR2B", "setting": "Kir6.1/SUR2B", "result": "failed to activate"},
      {"measurement": "Activation of Kir6.2/SUR1", "setting": "Kir6.2/SUR1", "result": "dose-dependently activated; also recorded: induced dose-dependent Kir6.2/SUR1 activation; also recorded: activate Kir6.2/SUR1 at higher drug doses"}
    ]},
    {"molecule": "O=C1c2oc3ccccc3c(=O)c2C(c2cccc(Br)c2)N1CCO", "note": "(centres unmarked) [VU0605768, 1-(3-bromophenyl)-2-(2-hydroxyethyl)-1,2-dihydrochromeno[2,3-c]pyrrole-3,9-dione]", "values": [
      {"measurement": "IC50", "setting": "Kir2.1", "result": "> 30", "unit": "µM"},
      {"measurement": "IC50", "setting": "Kir2.3", "result": "> 30", "unit": "µM"},
      {"measurement": "IC50", "setting": "Kir2.2", "result": "> 30", "unit": "µM"},
      {"measurement": "Activation of Kir6.1/SUR2B", "setting": "Kir6.1/SUR2B", "result": "failed to activate"},
      {"measurement": "Activation of Kir6.2/SUR1", "setting": "Kir6.2/SUR1", "result": "dose-dependently activated; also recorded: induced dose-dependent Kir6.2/SUR1 activation; also recorded: activate Kir6.2/SUR1 at higher drug doses"}
    ]},
    {"molecule": "O=C(NCc1cc(-c2ccncc2)n(C2CCCC2)n1)Nc1cccs1", "note": "[VU0544086, 1-((1-cyclopentyl-5-(pyridin-4-yl)-1 H-pyrazol-3-yl)methyl)-3-(thiophen-2-yl)urea]", "values": [
      {"measurement": "IC50", "setting": "Kir2.1", "result": "> 30", "unit": "µM"},
      {"measurement": "IC50", "setting": "Kir2.3", "result": "> 30", "unit": "µM"},
      {"measurement": "IC50", "setting": "Kir2.2", "result": "> 30", "unit": "µM"},
      {"measurement": "Activation of Kir6.1/SUR2B", "setting": "Kir6.1/SUR2B", "result": "failed to activate"},
      {"measurement": "Activation of Kir6.2/SUR1", "setting": "Kir6.2/SUR1", "result": "failed to activate"}
    ]},
    {"molecule": "c1ccc2[nH]c(CSc3ncnc4c3oc3ccccc34)nc2c1", "note": "[VU0212387, 4-(((1 H-benzo[d]imidazol-2-yl)methyl)thio)benzofuro[3,2-d]pyrimidine]", "values": [
      {"measurement": "IC50", "setting": "Kir2.1", "result": "> 30", "unit": "µM"},
      {"measurement": "IC50", "setting": "Kir2.3", "result": "> 30", "unit": "µM"},
      {"measurement": "IC50", "setting": "Kir2.2", "result": "> 30", "unit": "µM"},
      {"measurement": "Activation of Kir6.1/SUR2B", "setting": "Kir6.1/SUR2B", "result": "failed to activate"},
      {"measurement": "Activation of Kir6.2/SUR1", "setting": "Kir6.2/SUR1", "result": "dose-dependently activated; also recorded: induced dose-dependent Kir6.2/SUR1 activation; also recorded: activate Kir6.2/SUR1 at higher drug doses"}
    ]}
  ]
}
